According to paper doi:10.1101/2022.07.21.500659v1 (bioRxiv, 2022):

Legend:
Type in all cases: in vivo, mouse
[1] = test system: OVX BALB/c mice; test: Dynamic bone histomorphometry of tibia in OVX mice; conditions: calcein labelling
[2] = test system: OVX BALB/c mice; conditions: femur midshaft cortical cross-section, FTIRI, vs vehicle-treated OVX mice
[3] = test system: OVX BALB/c mice; test: Circulating PTH, CTX-I and P1NP in OVX mice; conditions: plasma at necropsy, vs OVX+vehicle
[4] = test system: OVX BALB/c mice; test: High resolution X-ray microCT of tibia in OVX mice; conditions: 8 weeks, vs OVX+vehicle
[5] = test system: OVX BALB/c mice; test: Bone strength, 3-point bending of femur in OVX mice; conditions: 8 weeks of treatment

## O=P(O)(O)C(O)(Cn1ccnc1)P(=O)(O)O [zoledronic acid]
[1]
  Active mineralizing surface: reduction
  Bone formation rate: reduction
[2]
  Enhancement of collagen maturity: None of these effects were observed
  Reduction of the degree of mineralization of the bone ECM: None of these effects were observed
[3]
  Change of circulating levels of P1NP: −25%
  Reduction of circulating levels of CTX-I: 24%
[4]; midshaft tibia
  Increase of cortical thickness: 6%
[4]; proximal tibia
  Increase of trabeculae numbers: 106%
  Increase of trabecular bone mass: 85%
[5]
  Reduced deformation in load-deformation curves of OVX mice: not ameliorated
